Laboratory results as given in patent US7019144B2, “1,2,4-Triazole derivative, method for preparing the same, and pharmaceutical composition containing the same” (CJ Corp., priority 2002, dated 2006).

Key:
[1] = test system: carrageenan-induced paw edema; experiment: Carrageenan-induced paw edema test in rats; assay type: in vivo; conditions: for Inhibitory effect (% inhibition): oral administration, foot swelling 3 hours after carrageenan injection vs control; for COX inhibitory effect (paw edema % inhibition) in comparison with Celecoxib: oral, comparison in words
Procedure: 2. Carrageenan-induced Paw Edema Test in Rats
The day before the test date, rats were selected in each group so that the average body weight was as close as possible, and the rats were fasted by feed withdrawal prior to the test. At the test date, the rats were orally administered with the test compounds and a control material. After 1 hour, the volume (V0h) of a predetermined portion of the left hind foot of the rats was measured with a plethysmometer. 100 μl of 1% carrageenan solution was subcutaneously injected to the left hind foot of the rats using a syringe with 1 ml capacity. Three hours after the injection of the carrageenan, the volume (V3h) of the predetermined portion of the foot was again measured. The foot swelling variation […] in a group of test compound-treated rats was compared with that of a group of control material-treated rats. With the supposition of 0% inhibition by the control (control material-treated rats), the inhibition percentage of edema of each test compound was determined.

COX-2 = molecular target: T1, COX-2 (Mus musculus, UniProt Q05769); experiment: Assay for the COX-2 inhibitory activity using RAW 264.7 cell line (PGE2, interferon γ/LPS induced); assay type: cell-based; conditions: for COX-2 inhibitory activity in comparison with the reference (Valdecoxib): 10 nM, RAW 264.7, comparison in words; for inhibition at 0.01 µM: RAW264.7, 10 nM test compound, RAW 264.7 cells, interferon γ + LPS, 18 hours, PGE2, read-out: Cyclooxygenase (COX) Inhibition (%) COX-2 (10 nM); for selectivity (COX-2 over COX-1): judged from Table 1, in words
T1 construct: host or cells: RAW 264.7 cells, aspirin-pretreated, then induced with interferon gamma and LPS
T1 sequence (Q05769 18-604): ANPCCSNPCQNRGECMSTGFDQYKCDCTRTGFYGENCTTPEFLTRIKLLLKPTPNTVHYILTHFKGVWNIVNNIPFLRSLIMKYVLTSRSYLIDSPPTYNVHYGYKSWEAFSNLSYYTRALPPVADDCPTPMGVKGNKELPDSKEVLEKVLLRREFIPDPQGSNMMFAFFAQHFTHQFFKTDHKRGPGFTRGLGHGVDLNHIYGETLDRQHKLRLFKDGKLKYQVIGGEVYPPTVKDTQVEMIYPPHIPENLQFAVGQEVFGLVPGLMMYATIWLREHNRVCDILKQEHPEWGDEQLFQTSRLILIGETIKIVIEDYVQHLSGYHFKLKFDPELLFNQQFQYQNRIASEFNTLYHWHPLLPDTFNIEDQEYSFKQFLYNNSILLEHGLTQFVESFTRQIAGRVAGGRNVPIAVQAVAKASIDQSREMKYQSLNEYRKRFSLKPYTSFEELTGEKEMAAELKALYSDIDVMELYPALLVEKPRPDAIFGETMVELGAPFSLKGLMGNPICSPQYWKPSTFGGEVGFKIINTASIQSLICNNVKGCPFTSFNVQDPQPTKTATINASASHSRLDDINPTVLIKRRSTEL
Procedure: Each well was treated with 250 μM of aspirin and incubated at 37° C. for 2 hours. […] Then, each well was treated with interferon γ (100 units/ml) and Iipopolysaccharide (LPS, 100 ng/ml) and incubated for 18 hours. The culture media were transferred to another test tubes. The concentration of PGE2 was quantified by means of the EIA kit (Cayman Chemicals).
(§1) The percentages of the COX inhibition were calculated according to the following equation: % Inhibition=(concentration of PGE2 in test compound-untreated sample−concentration of PGE2 in test compound-treated sample)/(concentration of PGE2 in test compound-untreated sample)×100

COX-1 = molecular target: T2, COX-1 (Homo sapiens, UniProt P23219); experiment: Assay for the COX-1 inhibitory activity using U-937 (PGE2 inhibition); assay type: cell-based; conditions: for inhibition at 1 µM: 1 μM test compound, U-937 human lymphoma cells, PGE2 inhibition vs DMSO, read-out: Cyclooxygenase (COX) Inhibition (%) COX-1 (1 μM); for COX-1 inhibitory activity in comparison with the reference (Valdecoxib): 1 μM, U-937, comparison in words
T2 construct: host or cells: U-937 human lymphoma cells
Procedure: The collected cells were diluted with HBSS (×1, Hank's balanced salt solution) to a concentration of 1×10^6 cells/ml. 1 ml of the dilute cell solution was placed into each well of 12-well plates. 5 μl of 1 μM solution of a test compound in DMSO and 5 μl of DMSO as a control were added to the wells. The wells were incubated in CO2 incubator at 37° C. for 15 minutes. Separately, 10 mM stock solution of arachidonic acid in ethanol was diluted ten times in ethanol to prepare 1 mM solution of arachidonic acid. Arachidonic acid acts as a substrate. 10 μl of the 1 mM solution of arachidonic acid was added to each well and incubated at CO2 incubator at 37° C. for 30 minutes. The cell solution of each well was placed in a centrifuge test tube and centrifuged at 10,000 rpm at 4° C. for 5 minutes. The concentration of PGE2 in the collected cells and the supernatant was quantified by means of a monoclonal kit (Cayman Chemicals). The percentages of PGE2 inhibition in a group of the test compound-treated cells in relation to a group of the DMSO-treated cells were calculated. Based on the calculated values, the COX-1 inhibitory activities were evaluated.
as §1

T2 sequence (P23219 24-599): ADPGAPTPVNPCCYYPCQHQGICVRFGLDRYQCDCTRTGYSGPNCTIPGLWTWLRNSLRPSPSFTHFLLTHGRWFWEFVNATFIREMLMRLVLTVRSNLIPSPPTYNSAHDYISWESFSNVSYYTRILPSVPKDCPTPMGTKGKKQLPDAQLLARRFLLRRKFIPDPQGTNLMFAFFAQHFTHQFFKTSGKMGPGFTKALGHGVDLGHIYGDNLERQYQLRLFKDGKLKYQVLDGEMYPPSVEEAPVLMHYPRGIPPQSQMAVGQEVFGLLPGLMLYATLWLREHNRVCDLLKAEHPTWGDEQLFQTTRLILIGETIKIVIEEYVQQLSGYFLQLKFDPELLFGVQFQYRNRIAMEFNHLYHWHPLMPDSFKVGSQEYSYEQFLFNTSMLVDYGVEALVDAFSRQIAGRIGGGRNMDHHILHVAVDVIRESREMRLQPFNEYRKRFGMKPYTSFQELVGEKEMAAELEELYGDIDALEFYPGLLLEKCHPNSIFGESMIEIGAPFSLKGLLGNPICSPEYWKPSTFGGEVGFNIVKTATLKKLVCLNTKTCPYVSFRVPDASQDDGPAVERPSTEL

| SMILES | Inhibitory effect (% inhibition) [1] [% inhibition] | COX-2 inhibitory activity in comparison with the reference (Valdecoxib) (COX-2) | inhibition at 0.01 µM (COX-2) [%] | selectivity (COX-2 over COX-1) (COX-2) | inhibition at 1 µM (COX-1) [%] | COX-1 inhibitory activity in comparison with the reference (Valdecoxib) (COX-1) | COX inhibitory effect (paw edema % inhibition) in comparison with Celecoxib [1] |
| --- | --- | --- | --- | --- | --- | --- | --- |
| CS(=O)(=O)c1ccc(-n2nc(C(F)(F)F)nc2-c2ccc(Br)cc2)nc1 [Example 45, 2-[5-(4-bromophenyl)-3-trifluoromethyl-[1,2,4]triazol-1-yl]-5-methanesulfonyl pyridine] | 21.6 | remarkably enhanced | 33.6 | excellent selectivities | 14.6 | the same as or lower |  |
| NS(=O)(=O)c1ccc(-n2nc(C(F)(F)F)nc2-c2ccc(Br)cc2)cc1 [Example 44, 4-[5-(4-bromophenyl)-3-trifluoromethyl-[1,2,4]triazol-1-yl]benzene sulfonamide] | 28.8 | remarkably enhanced | 29.9 | excellent selectivities | 23.1 | the same as or lower | remarkably improved |
| CCOc1ccc(-c2nc(C(F)(F)F)nn2-c2ccc(S(C)(=O)=O)cc2)cc1 [Example 35, 5-(4-ethoxyphenyl)-1-(4-methanesulfonylphenyl)-3-trifluoromethyl-1H-[1,2,4]triazole] | 32.3 | remarkably enhanced | 38.6 | excellent selectivities | 11.8 | the same as or lower | remarkably improved |
| CS(=O)(=O)c1ccc(-n2nc(C(F)(F)F)nc2-c2ccc(Br)cc2)cc1 [Example 27, 5-(4-bromophenyl)-1-(4-methanesulfonylphenyl)-3-trifluoromethyl-1H-[1,2,4]triazole] | 21.7 |  | 16 |  | 13.8 |  |  |
| COc1ccc(/C=C/c2nc(C(F)(F)F)nn2-c2ccc(S(C)(=O)=O)cc2)cc1 [Example 34, 5-[2-(4-methoxyphenyl)vinyl]-1-(4-methanesulfonylphenyl)-3-trifluoromethyl-1H-[1,2,4]triazole] | 19.3 |  | 26.8 |  | 23.5 |  |  |
